Results from patent publication US9725416B2, “Ethynyl derivatives” (Hoffmann-La Roche Inc., priority 2014, dated 2017).

Target: T1, human mGlu4 receptor (Homo sapiens, UniProt Q14833)
T1 construct: expressed in transfected cells; host or cells: HEK-293 (monoclonal, stably transfected)
Test: Ca2+ mobilization in vitro assay on recombinant human mGlu4 expressed in HEK293 cells (mGlu4 PAM)
Assay type: cell-based
Conditions: for Emax: HEK293, maximal response in % of the maximal stimulatory effect obtained with saturating concentrations of L-AP4, read-out: Eff. (%); for EC50: HEK-293 cells, Ca2+ mobilization, L-AP4 added at EC20
Protocol: Determination of EC50 Values Using a Ca2+ mobilization in vitro Assay on Recombinant Human mGlu4 Expressed in HEK293 cells:
A monoclonal HEK-293 cell line stably transfected with a cDNA encoding for the human mGlu4 receptor was generated; for the work with mGlu4 Positive Allosteric Modulators (PAMs), a cell line with low receptor expression levels and low constitutive receptor activity was selected to allow the differentiation of agonistic versus PAM activity. Cells were cultured according to standard protocols (Freshney, 2000) in Dulbecco's Modified Eagle Medium with high glucose supplemented with 1 mM glutamine, 10% (vol/vol) heat-inactivated bovine calf serum, Penicillin/Streptomycin, 50 μg/ml hygromycin and 15 μg/ml blasticidin (all cell culture reagents and antibiotics from Invitrogen, Basel, Switzerland).
About 24 hrs before an experiment, 5×10^4 cells/well were seeded in poly-D-lysine coated, black/clear-bottomed 96-well plates. The cells were loaded with 2.5 μM Fluo-4AM in loading buffer (1×HBSS, 20 mM HEPES) for 1 hr at 37° C. and washed five times with loading buffer. The cells were transferred into a Functional Drug Screening System 7000 (Hamamatsu, Paris, France), and 11 half logarithmic serial dilutions of test compound at 37° C. were added and the cells were incubated for 10-30 min. with on-line recording of fluorescence. Following this pre-incubation step, the agonist (2S)-2-amino-4-phosphonobutanoic acid (L-AP4) was added to the cells at a concentration corresponding to EC20 with on-line recording of fluorescence; in order to account for day-to-day variations in the responsiveness of cells, the EC20 of L-AP4 was determined immediately ahead of each experiment by recording of a full dose-response curve of L-AP4.
Responses were measured as peak increase in fluorescence minus basal (i.e. fluorescence without addition of L-AP4), normalized to the maximal stimulatory effect obtained with saturating concentrations of L-AP4. Graphs were plotted with the % maximal stimulatory using XLfit, a curve fitting program that iteratively plots the data using Levenburg Marquardt algorithm. The single site competition analysis equation used was y=A+((B−A)/(1+((x/C)D))), where y is the % maximal stimulatory effect, A is the minimum y, B is the maximum y, C is the EC50, x is the log 10 of the concentration of the competing compound and D is the slope of the curve (the Hill Coefficient). From these curves the EC50 (drug concentration at which 50% of the maximal receptor activation was achieved), the Hill coefficient as well as the maximal response in % of the maximal stimulatory effect obtained with saturating concentrations of L-AP4 were calculated (see FIG. 1).
A depression of the signal observed after addition of the EC20 concentration of L-AP4was indicative of an inhibitory activity of the test compound.

T1 sequence (Q14833 33-912): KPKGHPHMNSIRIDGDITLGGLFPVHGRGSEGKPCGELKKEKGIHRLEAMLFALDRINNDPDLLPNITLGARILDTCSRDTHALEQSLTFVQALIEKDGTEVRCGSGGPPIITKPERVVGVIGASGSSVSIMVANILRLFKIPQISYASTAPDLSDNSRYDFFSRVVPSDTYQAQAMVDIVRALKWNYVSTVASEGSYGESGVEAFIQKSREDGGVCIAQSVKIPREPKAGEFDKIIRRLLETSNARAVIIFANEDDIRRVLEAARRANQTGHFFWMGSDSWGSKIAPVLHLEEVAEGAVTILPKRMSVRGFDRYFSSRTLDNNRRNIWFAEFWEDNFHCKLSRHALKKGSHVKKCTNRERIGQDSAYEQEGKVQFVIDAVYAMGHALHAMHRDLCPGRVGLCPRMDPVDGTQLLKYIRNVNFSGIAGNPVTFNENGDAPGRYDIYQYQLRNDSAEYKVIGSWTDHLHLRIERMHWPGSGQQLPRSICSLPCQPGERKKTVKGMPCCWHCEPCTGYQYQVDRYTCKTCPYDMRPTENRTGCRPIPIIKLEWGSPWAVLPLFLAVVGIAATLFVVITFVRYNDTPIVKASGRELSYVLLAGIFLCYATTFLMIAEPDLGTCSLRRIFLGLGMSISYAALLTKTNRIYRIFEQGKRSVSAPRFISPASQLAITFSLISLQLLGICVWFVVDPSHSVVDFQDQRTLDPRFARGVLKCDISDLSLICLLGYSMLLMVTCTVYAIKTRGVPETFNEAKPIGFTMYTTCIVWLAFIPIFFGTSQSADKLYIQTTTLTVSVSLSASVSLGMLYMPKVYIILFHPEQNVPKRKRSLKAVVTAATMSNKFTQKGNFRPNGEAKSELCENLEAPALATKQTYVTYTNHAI

SMILES | Emax | EC50
CCN1C(=O)N(c2c(F)cc(C#Cc3cccnc3)cc2Cl)C(=O)CC1(C)C [Example 10, 3-[2-Chloro-6-fluoro-4-[2-(3-pyridyl)ethynyl]phenyl]-1-ethyl-6,6-dimethyl-hexahydropyrimidine-2,4-dione] | 169% | 256 nM
CN1CCN2C(=O)N(c3c(F)cc(C#Cc4ccccc4)cc3F)C(=O)CC2(C)C1=O (racemic) [Example 35, (9aRS)-7-[2,6-Difluoro-4-(2-phenylethynyl)phenyl]-2,9a-dimethyl-4,9-dihydro-3H-pyrazino[1,2-c]pyrimidine-1,6,8-trione] | 131% | 158 nM
CN1C(=O)N(c2c(F)cc(C#Cc3ccccc3)cc2F)C(=O)C[C@@]1(C)c1cncnc1 [Example 56, (6S)-3-[2,6-Difluoro-4-(2-phenylethynyl)phenyl]-1,6-dimethyl-6-pyrimidin-5-yl-hexahydropyrimidine-2,4-dione] | 99% | 79 nM
CN1C(=O)N(c2ccc(C#Cc3ccccc3)cc2Cl)C(=O)CC12CCOCC2 [Example 4, 3-[2-Chloro-4-(2-phenylethynyl)phenyl]-1-methyl-9-oxa-1,3-diazaspiro[5.5]undecane-2,4-dione] | 103% | 388 nM
CC1C(=O)N(c2c(F)cc(C#Cc3ccccc3)cc2F)C(=O)N(C)C1(C)C (racemic) [Example 7, (5RS)-3-[2,6-Difluoro-4-(2-phenylethynyl)phenyl]-1,5,6,6-tetramethyl-hexahydropyrimidine-2,4-dione] | 148% | 157 nM
CN1C(=O)N(c2c(F)cc(C#Cc3cccnc3)cc2F)C(=O)C[C@@]1(C)c1ccnc(Cl)c1 [Example 64, (6S)-6-(2-Chloro-4-pyridyl)-3-[2,6-difluoro-4-[2-(3-pyridyl)ethynyl]phenyl]-1,6-dimethyl-hexahydropyrimidine-2,4-dione] | 119% | 124 nM
CC(C)Oc1ccc([C@]2(C)CC(=O)N(c3c(F)cc(C#Cc4ccccc4)cc3F)C(=O)N2C)cn1 [Example 69, (6S)-3-[2,6-Difluoro-4-(2-phenylethynyl)phenyl]-6-(6-isopropoxy-3-pyridyl)-1,6-dimethyl-hexahydropyrimidine-2,4-dione] | 95% | 97 nM
CC12CC(=O)N(c3c(F)cc(C#Cc4ccccc4)cc3F)C(=O)N1CCN(c1ccccc1)C2=O (racemic) [Example 38, (9aRS)-7-[2,6-Difluoro-4-(2-phenylethynyl)phenyl]-9a-methyl-2-phenyl-4,9-dihydro-3H-pyrazino[1,2-c]pyrimidine-1,6,8-trione] | 105% | 31 nM
O=C1CC2COCCN2C(=O)N1c1c(F)cc(C#Cc2ccccc2)cc1F (racemic) [Example 8, (9aRS)-7-[2,6-Difluoro-4-(2-phenylethynyl)phenyl]-3,4,9,9a-tetrahydro-1H-pyrimido[6,1-c][1,4]oxazine-6,8-dione] | 107% | 144 nM
CC(C)(C)C1(C)CC(=O)N(c2c(F)cc(C#Cc3ccccc3)cc2F)C(=O)N1 (racemic) [Example 43, (6RS)-6-tert-Butyl-3-[2,6-difluoro-4-(2-phenylethynyl)phenyl]-6-methyl-hexahydropyrimidine-2,4-dione] | 92% | 75 nM
CC(C)N1C(=O)N(c2c(F)cc(C#Cc3ccccc3)cc2F)C(=O)C[C@@]1(C)c1cccnc1 [Example 70, (6S)-3-[2,6-Difluoro-4-(2-phenylethynyl)phenyl]-1-isopropyl-6-methyl-6-(3-pyridyl)hexahydropyrimidine-2,4-dione] | 106% | 73 nM
CN1C(=O)N(c2ncc(C#Cc3ccccc3)cc2Cl)C(=O)CC1(C)c1ccccc1 (racemic) [Example 32, (6RS)-3-[3-Chloro-5-(2-phenylethynyl)-2-pyridyl]-1,6-dimethyl-6-phenyl-hexahydropyrimidine-2,4-dione] | 103% | 155 nM
CN1C(=O)N(c2c(F)cc(C#Cc3ccccc3)cc2F)C(=O)[C@H]2CCC[C@H]21 (racemic) [Example 11, (4aRS,7aSR)-3-[2,6-Difluoro-4-(2-phenylethynyl)phenyl]-1-methyl-5,6,7,7a-tetrahydro-4aH-cyclopenta[d]pyrimidine-2,4-dione] | 131% | 163 nM
CN1C(=O)N(c2c(F)cc(C#Cc3cccnc3)cc2F)C(=O)CC1(C)C1CCCCC1 (racemic) [Example 31, (6RS)-6-Cyclohexyl-3-[2,6-difluoro-4-[2-(3-pyridyl)ethynyl]phenyl]-1,6-dimethyl-hexahydropyrimidine-2,4-dione] | 117% | 245 nM
CN1C(=O)N(c2ncc(C#Cc3ccccc3)cc2F)C(=O)C[C@@]1(C)c1cccnc1 [Example 50, (6S)-3-[3-Fluoro-5-(2-phenylethynyl)-2-pyridyl]-1,6-dimethyl-6-(3-pyridyl)hexahydropyrimidine-2,4-dione] | 164% | 104 nM

More lines, now with the values ahead:

Emax | EC50 | SMILES
144% | 109 nM | CN1C(=O)N(c2c(F)cc(C#Cc3ccccc3)cc2F)C(=O)CC1(C)c1cccnc1 (racemic) [Example 29, (6RS)-3-[2,6-Difluoro-4-(2-phenylethynyl)phenyl]-1,6-dimethyl-6-(3-pyridyl)hexahydropyrimidine-2,4-dione]
98% | 70 nM | Cc1ccc([C@]2(C)CC(=O)N(c3c(F)cc(C#Cc4ccccc4)cc3F)C(=O)N2C)cn1 [Example 54, (6S)-3-[2,6-Difluoro-4-(2-phenylethynyl)phenyl]-1,6-dimethyl-6-(6-methyl-3-pyridyl)hexahydropyrimidine-2,4-dione]
136% | 84 nM | CN1C(=O)N(c2c(F)cc(C#Cc3ccccc3)cc2F)C(=O)C[C@@]1(C)c1ccnnc1 [Example 61, (6S)-3-[2,6-Difluoro-4-(2-phenylethynyl)phenyl]-1,6-dimethyl-6-pyridazin-4-yl-hexahydropyrimidine-2,4-dione]
108% | 88 nM | CN1C(=O)N(c2c(F)cc(C#Cc3ccccc3)cc2F)C(=O)CC1(C)c1ccc(Cl)nc1 (racemic) [Example 51, (6RS)-6-(6-Chloro-3-pyridyl)-3-[2,6-difluoro-4-(2-phenylethynyl)phenyl]-1,6-dimethyl-hexahydropyrimidine-2,4-dione]
106% | 44 nM | CN1C(=O)N(c2c(F)cc(C#Cc3ccccc3)cc2F)C(=O)C[C@@]1(C)c1ccncn1 [Example 55, (6S)-3-[2,6-Difluoro-4-(2-phenylethynyl)phenyl]-1,6-dimethyl-6-pyrimidin-4-yl-hexahydropyrimidine-2,4-dione]
98% | 37 nM | CN1C(=O)N(c2c(F)cc(C#Cc3ccccc3)cc2F)C(=O)C[C@@]1(C)c1cccnc1 [Example 49, (6S)-3-[2,6-Difluoro-4-(2-phenylethynyl)phenyl]-1,6-dimethyl-6-(3-pyridyl)hexahydropyrimidine-2,4-dione]
113% | 44 nM | CC(C)n1cc([C@]2(C)CC(=O)N(c3c(F)cc(C#Cc4ccccc4)cc3F)C(=O)N2C)ccc1=O [Example 68, (6S)-3-[2,6-Difluoro-4-(2-phenylethynyl)phenyl]-6-(1-isopropyl-6-oxo-3-pyridyl)-1,6-dimethyl-hexahydropyrimidine-2,4-dione]
114% | 40 nM | CN1C(=O)N(c2c(F)cc(C#Cc3ccccc3)cc2F)C(=O)C[C@@]1(C)c1cnc2c(ccn2C)c1 [Example 84, (6S)-3-[2,6-Difluoro-4-(2-phenylethynyl)phenyl]-1,6-dimethyl-6-(1-methylpyrrolo[2,3-b]pyridin-5-yl)hexahydropyrimidine-2,4-dione]
116% | 42 nM | CN1C(=O)N(c2c(F)cc(C#Cc3ccccc3)cc2F)C(=O)C[C@@]1(C)c1ccc(=O)n(C)n1 [Example 83, (6S)-3-[2,6-Difluoro-4-(2-phenylethynyl)phenyl]-1,6-dimethyl-6-(1-methyl-6-oxo-pyridazin-3-yl)hexahydropyrimidine-2,4-dione]
191% | 92 nM | CN1C(=O)N(c2c(F)cc(C#Cc3ccccc3)cc2F)C(=O)CC1(C)C [Example 1, 3-[2,6-Difluoro-4-(2-phenylethynyl)phenyl]-1,6,6-trimethyl-hexahydropyrimidine-2,4-dione]
